The values that follow come from patent US20060198882A1, “Stable liposomes or micelles comprising a sphinolipid and a peg-lipopolymer” (priority 2003, published 2006).

Where “and” joins values, the source holds several entries; their conditions need not be identical. Equal entries are not always repeated.

The nature of data set [1]: Partition in the two phases of the Dole system. The data set is classed as physicochemical. Conditions: for % of lipid in heptane-rich upper phase / % of lipid in isopropanol/water lower phase: Dole two phase system. How it is done: The distribution of the C18 sphingosine-based ceramides with different acyl chain lengths and of DMS between the polar phase and respectively less polar phase (as defined below) of the Dole two phase system was determined. […] The different ceramides included: short (C2 Cer and C4 Cer), medium (C6 Cer and C8 Cer), long (C16 Cer). […] In: Liposome Technology 2nd Edn., G Gregoriadis (Ed.) CRC Press, Boca Raton, 1993, vol. 1, pp: 527-616]. The amount of each of the lipids used in each of the two phases was measured by thin-layer chromatography (TLC). For ceramide quantification TLC was developed in a solvent system containing chloroform/methanol (95:5 v/v). For DMS quantification TLC was developed in a solvent system containing chloroform/methanol/ammonia (89/9/2 v/v). Further, the TLC plate was sprayed with Copper sulfate reagent composed of 100 g anhydrous copper sulfate containing 80 ml of phosphoric acid (85%), %) dissolved in 600 ml of DDW. Copper sulphate reagent was applied to the plates by spraying, then heated and lipids appeared as dark brown spot. […] Quantity of ceramides in each phase was calculated from a standard curve of appropriate ceramide. […] (1993)Supra]. The distribution between the two Dole system phases was determined by the equation (as exemplified for ceramide): [formula] [formula] Where Kp denotes the partition coefficient of a given lipid or amphiphile referred to in the equation as lipid; Cer denotes ceramide; up is an abbreviation for the heptane rich low polarity upper phase and lp is an abbreviation for the polar isopropanol water rich lower phase.

A short description of data set [2]: Surface-pressure area isotherms. It is filed as physicochemical. Particulars: for minimal area per molecule: constant pressure of 20 mN/m; for collapse point pressure of monolayer: pure water sub-phase; for Area/molecule: table, monolayer on pure water sub-phase. How it is done:
The tested ceramides (C2 Cer, C4 Cer, C6 Cer, C8 Cer, C16 Cer) were dried in vacuum overnight, weighted and dissolved in hexane/isopropanol (3:2 vol.) to make the following stock solutions.
The surface-pressure/area isotherms were obtained on pure water sub-phase (similar isotherms were obtained on 140 mM NaCl). Barrier speed during compression was […] for all monolayers.
The minimal area per molecule of different ceramides (C2 Cer, C4 Cer, C6 Cer, C8 Cer, C16 Cer) was calculated at the constant pressure of 20 mN/m. […] The area per molecule of C2 Cer, C4 Cer, C8 Cer, C16 Cer was about 38, 46, 45.5, and 37.5^2, respectively.

In a further data set the test system is C-26 cells. As to the kind of experiment: Apoptosis by chromatin morphology (Hoechst-33342, confocal microscopy). It is filed as cell-based, human. As to the method:
(§1) a) The morphology of chromatin was assessed by staining with Hoechst-33342 obtained from Calbiochem (La Jolla, Calif.), a molecule which when reside in the minor groove of the DNA strand enhance its fluorescence intensity and, therefore, it is preferentially stains dsDNA [Jouvet, P. Mol. Biol. Cell 11:1919-1932 (2000)]. Briefly, samples containing 5*10^5 cells were cultured on 6-well plates covered with a glass coverslip. After treatment of cells with IC50 of drugs, cells were washed with PBS and fixated with 4% formaldehyde. After that cells were stained with Hoechst-33342 (5 μg/ml) and washed. Thereafter, glass coverslip was placed on a glass slide and photographed using a CLMS.

The next data set relates to OV-1063 cells. The data set is described as above. It is filed as cell-based, human. Particulars: for Apoptotic OV-1063 cells (% of total cell number), 16 hr: IC50 concentrations. How it is done:
as §1

Data set [3] in a line: Size distribution of ceramide dispersions by DLS. The data set is classed as physicochemical. How it is done: The particle size distribution of all liposome dispersions prepared was determined at 25° C. by dynamic light-scattering (DLS) using the ALV-NIBS/HPPS ALV-Laser, Vertriebsgesellschaft GmbH, (Langen, Germany) instrument.
However, so far the biological activity of the ceramides was not evaluated in vivo in spite their potential beneficial activity due to difficulties in their delivery. As mentioned above, ceramides by themselves are difficult to be dispersed in serum-free medium. […] When a volume of ceramides (C2Cer, C6Cer, and C16Cer) in ethanol:dodecane (98:2 v/v) was diluted into 100 volumes of serum-free medium a milky translucent dispersion was formed.
However, when these ceramide dispersions were diluted further (final dilution 1:1000) in serum-containing medium, a 4-6 fold increase in particle size was observed. As a control, when the solvents ethanol:dodecane (98:2) were mixed by themselves with medium without ceramides, no particles were detected by DLS. Also, for comparison, when ceramide solutions in ethanol (without dodecane) were diluted 1:100 in serum-containing medium very large particles were observed by DLS (Table 11).

For `CCCCCCCCCCCCC/C=C/[C@@H](O)[C@H](CO)NC(C)=O` [C2Cer, N-Acetyl-D-erythro-sphingosine], in data set [1], the “Kp (heptane rich/isopropanol and water rich partition coefficient)” value is given as 0.54; the “% of lipid in heptane-rich upper phase” value is 21% and 21.2%; the “% of lipid in isopropanol/water lower phase” value was 79% and 78.8%. Moreover, in data set [2], the monolayer stability entry is “did not give a stable monolayer”, the “minimal area per molecule” value is recorded as “about 38 Å^2”, the “collapse point pressure of monolayer” value is listed as “about 42 mN/m” and the Area/molecule was 38 A^2. Further, in the data set on C-26 cells, the “Apoptotic C-26 cells (% of total cell number), 16 hr” value came to 7% and the “Apoptotic C-26 cells (% of total cell number), 24 hr” value amounted to 14%. In addition, in the data set with OV-1063 cells, the “Apoptotic OV-1063 cells (% of total cell number), 24 hr” value is given as 60% and the “Apoptotic OV-1063 cells (% of total cell number), 16 hr” value stood at 48%. Also, in data set [3], the “Size (nm), Ethanol dispersion in serum-containing medium (1:100)” value (“Size (nm), Ethanol dispersion” below) was determined as 6514 nm; the “Size (nm), Ethanol:dodecane (98:2) dispersion in serum-containing medium (1:1000)” value (shortened to “Size (nm), Ethanol:dodecane … (1:1000)”) was found to be 1400 nm; the “Size (nm), Ethanol:dodecane (98:2) dispersion in serum-free medium (1:100)” value (from here on “Size (nm) … in serum-free medium (1:100)”) amounted to 330 nm.

On to `CCCCCCCCCCCCC/C=C/[C@@H](O)[C@H](CO)NC(=O)CCCCC` [C6Cer, N-hexanoyl-D-erythro-sphingosine], for which, in data set [1], the “Kp (heptane rich/isopropanol and water rich partition coefficient)” value turned out to be 3.17; the “% of lipid in heptane-rich upper phase” value is 63% and 62.7%; the “% of lipid in isopropanol/water lower phase” value is given as 37.3%. Besides, in data set [2], the “minimal area per molecule” value is “about 50 Å^2”, the “collapse point pressure of monolayer” value is reported as “about 42 mN/m” and the Area/molecule was 50 A^2. In the data set with C-26 cells, the “Apoptotic C-26 cells (% of total cell number), 16 hr” value was 9% and the “Apoptotic C-26 cells (% of total cell number), 24 hr” value came out at 18%. Besides, in the data set on OV-1063 cells, the “Apoptotic OV-1063 cells (% of total cell number), 24 hr” value was determined as 61% and the “Apoptotic OV-1063 cells (% of total cell number), 16 hr” value is 53%. In addition, in data set [3], the “Size (nm), Ethanol dispersion” value came to 3780 nm; the “Size (nm), Ethanol:dodecane … (1:1000)” value is recorded as 2100 nm; the “Size (nm) … in serum-free medium (1:100)” value is listed as 330 nm.

As for `CCCCCCCCCCCCC/C=C/[C@@H](O)[C@H](CO)NC(=O)CCCCCCCCCCCCCCC` [C16Cer, N-palmitoyl-D-erythro-sphingosine], in data set [1], the “Kp (heptane rich/isopropanol and water rich partition coefficient)” value was found to be 8.21; the “% of lipid in heptane-rich upper phase” value was 89%; the “% of lipid in isopropanol/water lower phase” value is 11%. Also, in data set [2], the monolayer stability entry is “unstable monolayer”, the “minimal area per molecule” value was roughly 37.5 Å^2, the “collapse point pressure of monolayer” value is given as “up to 50 mN/m” and the Area/molecule was found to be 37.5 A^2. For the same compound, the “Apoptotic C-26 cells (% of total cell number), 24 hr” value in the data set on C-26 cells is listed as 9%. Further, the “Apoptotic OV-1063 cells (% of total cell number), 24 hr” value in the data set with OV-1063 cells amounted to 17%. In addition, in data set [3], the “Size (nm), Ethanol dispersion” value is given as 4740 nm; the “Size (nm), Ethanol:dodecane … (1:1000)” value stood at 2824 nm; the “Size (nm) … in serum-free medium (1:100)” value is listed as 790 nm.
